Results on 2 compounds are retold here after PMC7217877, “N-AS-triggered SPMs are direct regulators of microglia in a model of Alzheimer’s disease” (Nature Communications, 2020).

Where “and” joins values, the source holds several entries; their conditions need not be identical. Equal entries are not always repeated.

For one assay, the system named is microglia. The assay is described as follows: SphK activity in primary cells. In kind it is cell-based, C57BL/6 mice. Conditions: Ab 10mM, replicates. The protocol: We confirmed S1P formation through SphK1 enzymatic activity measurements as previously described[11] using a UPLC (Ultra performance liquid chromatography) system (Waters). […] After pre-incubation, 1 mM ATP (Amresco, 0220) was added the mixture, and it was incubated at 37 °C for 1 h. The […] reactions were stopped by adding 53 μl of ethanol, and centrifuged at 15,493×g for 5 min. Thirty microliter of the supernatant was then transferred to a sampling glass vial and 5 μl was applied onto a UPLC system for analysis. S1P formation was followed as phosphorylation of (7-nitro-2-1,3-benzoxadiazol-4-yl)-d-erythro (NBD)-sphingosine (Avanti Polar Lipids) to NBD-S1P. Quantification was achieved by comparison with NBD-S1P (Avanti Polar Lipids) standards.
To confirm the generation and roles of N-AS in neurons, cells from E18 C57BL/6 mice were prepared as previously described. Cortices were dissected and then dissociated followed by incubation in papain (Worthington) at 37 °C for 15 min. […] Aβ 1–42 (10 μM, 24 h, Invitrogen, 03112) was exposed to neurons and the cells were analyzed for the generation and roles of N-AS. […] The human microglia treated with Aβ 1–42 and/or zileuton was incubated with N-AS (2.5 μM, 2 h, Sigma-Aldrich, 01912), and were analyzed for the generation and roles of N-AS.

The test system of the next assay is APP/PS1 mice. The assay is described as follows: Aβ in Lamp1+ phagolysosomes of microglia (Supplementary Fig 5a). Format: in vivo, mouse. Conditions: N-AS vs vehicle APP/PS1. The protocol:
(§1) Thioflavin S (Sigma-Aldrich) staining was carried out according to previously described procedures. We used 6E10 (mouse, 1:100, Signet, SIG39300), anti-20G10 (mouse, 1:1000, provided by D. R. Howlett, GlaxoSmithKline, Harlow, Essex, UK) for Aβ42, anti-G30 (rabbit, 1:1000, provided by D. R. Howlett) for Aβ40, SMA (mouse, 1:400, Sigma-Aldrich, A2547), AT8 (mouse, 1:500, Thermo Fisher Scientific, MN1020), Caspase-3 (mouse, 1:200, Novus Biologicals, NB100-56708), ac-S565 (rabbit, 1:100), COX2 (mouse, 1:250, Thermo Fisher Scientific, 35-8200), Iba1 (rabbit, 1:500, Wako, 019-19941 and goat, Abcam, ab5076), NeuN (mouse, 1:500, Millipore, MAB177), GFAP (rabbit, 1:500, Dako, N1506 and chicken, 1:500, Abcam, ab4674), and Lamp1 (mouse, 1:200, Abcam, ab24170). The sections were analyzed with a laser-scanning confocal microscope (FV3000; Olympus) or with a BX51 microscope (Olympus). MetaMorph software (Molecular Devices) was used to quantification. Three-dimensional reconstruction of microglia was recorded and analyzed using IMARIS software (Bitplane)[11]. For the analysis of age-dependent microglial COX2^+ CX3CR1^+ cells in WT and APP/PS1 mice, COX2 (rabbit, 1:100, Abcam, ab15191) and CX3CR1 (mouse, 1:100, BioLegend, 149008) antibody were used and the images were acquired on Alexa 488 and APC Channel with performed using Operetta CLS and Analysis Software 4.5 (Perkin-Elmer). […]

A further assay relates to 5×FAD mice. Kind of assay: Iba1+ microglia and GFAP+ astrocyte quantification (Supplementary Fig 8d,e). Format: in vivo, mouse. Here is the method: as §1

“Ab: Aβ 1–42 (Invitrogen, 03112) used to induce an AD environment in cells”: the “SphK activity (Fig 3d)” value in the assay with microglia was 3.655 and 3.493 and 3.944 and 3.366 and 2.386 and 3.719.
Regarding `CCCCCCCCCCCCC/C=C/[C@@H](O)[C@H](CO)NC(C)=O` [N-AS, N-((2S,3R,E)-1,3-Dihydroxyoctadec-4-en-2-yl)acetamide], in the assay on APP/PS1 mice, the “microglia containing co-stained lysosomes and Aβ” value was “increased number of microglia containing co-stained lysosomes and Aβ”. The “GFAP+ astrocyte” value with 5×FAD mice (5xFAD+N-AS, sFig 8e (sheet untitled)) is 1.617 and 1.112 and 1.516 and 1.497 and 1.364 and 1.314. For the same compound, the neuroinflammation result with 5×FAD mice (5×FAD, N-AS 30 mg kg^-1 daily s.c. 4 weeks) is on record as “similarly improved AD pathology of 5×FAD mice”.
